Measured values reported in patent US20030124104A1, “Probiotic compositions” (priority 2001, published 2003).
“And” between values parts separate entries of the source, which are not always exact repeats. Equal entries are not always repeated. “Also recorded” adds a separate entry of the source. Where two headings read alike, the source gives them in different places.

Key:
Type in all cases: cell-based
E. coli = assay: MIC dilutions of bile acids, E. coli
E. Faecium = assay: MIC dilutions of bile acids, E. Faecium
P. mirabilils = assay: MIC dilutions of bile acids, P. mirabilils
K. pneumoniae = assay: MIC dilutions of bile acids, K. pneumoniae
E. faecalis = assay: MIC dilutions of bile acids, E. faecalis
S. pneumoniae = assay: MIC dilutions of bile acids, S. pneumoniae
S. aureus = assay: MIC dilutions of bile acids, S. aureus
B. subtilis = assay: MIC dilutions of bile acids, B. subtilis
B. clausii = assay: MIC dilutions of bile acids, B. clausii

Structure (SMILES) | MIC (E. coli; E. coli) | MIC (E. Faecium) | MIC (P. mirabilils) | MIC (K. pneumoniae) | MIC (E. faecalis) | MIC (S. pneumoniae) | MIC (S. aureus) | MIC (B. subtilis) | MIC (B. clausii) | MIC (E. coli; Escherichia coli) | MIC (E. Faecium; Enterococcus faecium, read-out: MIC) | MIC (P. mirabilils; read-out: MIC) | MIC (K. pneumoniae; Klebsiella pneumoniae, read-out: MIC) | MIC (E. faecalis; Enterococcus faecalis, read-out: MIC) | MIC (S. pneumoniae; Streptococcus pneumoniae, read-out: MIC) | MIC (S. aureus; Staphylococcus aureus, read-out: MIC) | MIC (B. subtilis; Bacillus subtilis, read-out: MIC) | MIC (B. clausii; Shouchella clausii, read-out: MIC)
C[C@H](CCC(=O)O)[C@H]1CC[C@H]2[C@@H]3CC[C@@H]4C[C@H](O)CC[C@]4(C)[C@H]3C[C@H](O)[C@]12C [DOC, deoxycholic acid] | ≧20 μg/mL; also recorded: (≧0.05) mM | 625 μg/mL and (1.6) mM | ≧20 μg/mL; also recorded: (≧0.05) mM | ≧20 μg/mL; also recorded: (≧0.05) mM | 625 μg/mL and (1.6) mM | 20 μg/mL and (0.05) mM | ≧20 000 μg/mL; also recorded: (≧51.2) mM | 78 μg/mL and (0.2) mM | 78 μg/mL and (0.2) mM |  |  |  |  |  |  |  |  | 
C[C@H](CCC(=O)NCCS(=O)(=O)O)[C@H]1CC[C@H]2[C@@H]3CC[C@@H]4C[C@H](O)CC[C@]4(C)[C@H]3C[C@H](O)[C@]12C [TDOC, tauro-deoxycholic acid] |  |  |  |  |  |  |  |  |  | ≥ 25000 µg/mL and ≥ 51200 µM | 3120 µg/mL and 6400 µM | ≥ 25000 µg/mL and ≥ 51200 µM | ≥ 25000 µg/mL and ≥ 51200 µM | 25000 µg/mL and 51200 µM | 25000 µg/mL and 51200 µM | ≥ 25000 µg/mL and ≥ 51200 µM | 195 µg/mL and 400 µM | 24 µg/mL and ≤ 50 µM
